Laboratory results taken from patent US20050180932A1, “Ultraviolet absorption compositions” (AJINOMOTO CO. INC, priority 2002, published 2005).
Structures can show the parent of a compound that is named as a salt. Each block holds one compound with its values, some of them ahead of it.

Legend:
[1] = Wavelength at the maximum UV absorption and molar absorption coefficient (UV spectrometer, water/alcohol solution); assay type: physicochemical; details: for Amide-containing guanidine derivative: Mol.Abs.Coef. (ε) / Starting UV absorbent: Mol.Abs.Coef. (ε): in M-1cm-1 (unit assumed); for Amide-containing guanidine derivative: Wavelength / Starting UV absorbent: Wavelength: UV absorption maximum
Experimental: The wavelength showing the maximum absorption was measured by means of a UV spectrometer in a water and/or alcohol solution of R^1COOH or its salt as mentioned in detail in the Examples.
Test 1. Wavelength at the Maximum Absorption

[2] = Solubility in water at room temperature; assay type: physicochemical

Amide-containing guanidine derivative: Mol.Abs.Coef. (ε) ([1]; 30% methanol solution): 21885
Amide-containing guanidine derivative: Wavelength ([1]; 30% methanol solution): 280 nm
SMILES: N=C(N)NCCCCNC(=O)C=Cc1ccccc1.N=C(N)NCCCCNC(=O)C=Cc1ccccc1.O=S(=O)(O)O [Compound 1, N-cinnamoylamidobutylguanidine ½ sulfate]

Solubility of amide-containing guanidine derivative [2]: >15 wt %
SMILES: Cl.N=C(N)NCCCCNC(=O)C=Cc1ccccc1 [Compound 2, N-cinnamoylamidobutylguanidine hydrochloride]

Solubility of amide-containing guanidine derivative [2]: >15 wt %
SMILES: COc1ccc(C=CC(=O)N[C@@H](CCCNC(=N)N)C(=O)O)cc1 [Compound 3 (HCl salt)]

Amide-containing guanidine derivative: Mol.Abs.Coef. (ε) ([1]; 30% methanol solution): 24977
Amide-containing guanidine derivative: Wavelength ([1]; 30% methanol solution): 307 nm
SMILES: COc1ccc(C=CC(=O)N[C@@H](CCCNC(=N)N)C(=O)O)cc1 [Compound 3, N-paramethoxycinnamoylarginine]

Amide-containing guanidine derivative: Mol.Abs.Coef. (ε) ([1]; 40% isopropyl alcohol solution): 24122
Amide-containing guanidine derivative: Wavelength ([1]; 40% isopropyl alcohol solution): 307 nm
SMILES: CCCCCCCCCCCCOc1ccc(C=CC(=O)NCCCCNC(=N)N)cc1.CCCCCCCCCCCCOc1ccc(C=CC(=O)NCCCCNC(=N)N)cc1.O=S(=O)(O)O [Compound 4, N-paradodecyloxycinnamoylamidobutylguanidine ½ sulfate]

Solubility of amide-containing guanidine derivative [2]: >7 wt %
SMILES: CCCCCCCCCCCCOc1ccc(C=CC(=O)NCCCCNC(=N)N)cc1.Cl [Compound 5, N-paradodecyloxycinnamoylamidobutylguanidine hydrochloride]

Amide-containing guanidine derivative: Mol.Abs.Coef. (ε) ([1]; 40% isopropyl alcohol solution): 25740
Amide-containing guanidine derivative: Wavelength ([1]; 40% isopropyl alcohol solution): 308 nm
SMILES: CCCCCCCCCCCCOc1ccc(/C=C/C(=O)N[C@@H](CCCNC(=N)N)C(=O)O)cc1 [Compound 6, N-paradodecyloxycinnamoylarginine]

Starting UV absorbent: Mol.Abs.Coef. (ε) ([1]; 30% methanol solution): 18661
Starting UV absorbent: Wavelength ([1]; 30% methanol solution): 279 nm
SMILES: O=C(O)C=Cc1ccccc1 [Starting UV absorbent of Prep.1, cinnamic acid, reference compound]

Starting UV absorbent: Mol.Abs.Coef. (ε) ([1]; 30% methanol solution): 20845
Starting UV absorbent: Wavelength ([1]; 30% methanol solution): 307 nm
Solubility of starting UV absorbent [2]: <0.1 wt %
SMILES: COc1ccc(C=CC(=O)O)cc1 [Starting UV absorbent of Prep.3, p-methoxycinnamic acid, reference compound]

Starting UV absorbent: Mol.Abs.Coef. (ε) ([1]; 40% isopropyl alcohol solution): 21246
Starting UV absorbent: Wavelength ([1]; 40% isopropyl alcohol solution): 309 nm
Solubility of starting UV absorbent [2]: <0.01 wt %
SMILES: CCCCCCCCCCCCOc1ccc(C=CC(=O)O)cc1 [Starting UV absorbent of Prep.4, p-dodecyloxycinnamic acid, reference compound]
